Legend:
Format in all cases: physicochemical
[1] = Moisture uptake of Compound I amorphous material at room temperature under controlled relative humidity
From the text: (§1) Other benefits that crystalline Form I offers include but are not limited to purification and isolation of the crystalline form with respect to the solution and facilitation of storage and handling during the formulation development and manufacturing of drug product.

[2] = Form stability on extended exposure to water (water slurry, XRPD); conditions: slurried in water, 2 week sample, XRPD (FIG. 6)
Experimental: Approximately 15-50 mg of Compound I are weighed and transferred to each of fifteen vials each equipped with a mini magnetic stir bar. The starting material used for this experiment is an amorphous solid based on the X-ray powder diffraction (XRPD) pattern (See FIG. 1). To each vial is added 1 mL of various solvents. The slurries are allowed to stir for two weeks at room temperature (˜22° C.). XRPD characterization of the excess solids were performed at ˜1 week and ˜2 week time points. A sample of 300 μL of the suspension is removed from each vial, transferred to a centrifuge filter (Costar, 0.45 micron) and centrifuged at 1000 rpm for 2 minutes. Solids in the wet cake form are analyzed using XRPD analysis (PANalytical X'Pert PRO X-ray powder diffractometer). This diffractometer uses Cu-Ka radiation and it operates under reflection mode. Scan range is from 2 to 40 degree 2 theta. After air drying the small sample, (XRPD) analysis is performed again to monitor any change in the diffraction pattern between the wet and dry material. TGA is run on the saturated solution to determine the solubility of the equilibrating solids in the solvent. […]

[3] = Dynamic vapor sorption of Compound I crystalline Form I
From the text: as §1

CCOP(=O)(COc1ccc(CC(NC(=O)OC2CO[C@H]3OCC[C@@H]23)[C@H](O)CN(CC(C)C)S(=O)(=O)c2ccc(OC)cc2)cc1)OCC (stereo partly drawn) [Compound I amorphous material]
Weight gain after 5 days ([1]; 75% Relative Humidity): 0.6%
Weight gain after 11 days ([1]; 75% Relative Humidity): 1.0%
Weight gain after 5 days ([1]; 97% Relative Humidity): 3.8%

CCOP(=O)(COc1ccc(CC(NC(=O)OC2CO[C@H]3OCC[C@@H]23)[C@H](O)CN(CC(C)C)S(=O)(=O)c2ccc(OC)cc2)cc1)OCC (stereo partly drawn) [Form I]
solid form after extended exposure to water [2]: remains as the same form
hygroscopicity [3]: not hygroscopic
water absorbed ([3]; 90% relative humidity): 0.4%
